Laboratory results from ChEMBL document CHEMBL1201862, “PubChem BioAssay data set” (2004).
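Where inhibition never reached the appropriate level, the endpoint shown equals the highest concentration tested. Otherwise, values were interpolated linearly from a five-concentration, 48-hour dose response in 96-well plates. GI50 marks 50% less growth.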 Calls of active or inactive are those of the source. Rule as the data show it: active = GI50 up to about 1.1 µM and inactive = higher.

What was measured:
Assay in all cases: inhibition of tumour cell growth, NCI panel, 48 h
MOLT-4 = test system: MOLT-4
HL-60 = test system: HL-60
K562 = test system: K562
OVCAR-3 = test system: OVCAR-3
HOP-62 = test system: HOP-62
Hs-578T = test system: Hs-578T
SNB-19 = test system: SNB-19
HCT-116 = test system: HCT-116
CAKI-1 = test system: CAKI-1
EKVX = test system: EKVX
SK-MEL-28 = test system: SK-MEL-28
NCI-H522 = test system: NCI-H522
CCRF-CEM = test system: CCRF-CEM
UACC-257 = test system: UACC-257
HCC 2998 = test system: HCC 2998
LOX IMVI = test system: LOX IMVI
SK-MEL-2 = test system: SK-MEL-2
SF-295 = test system: SF-295
A498 = test system: A498
RPMI-8226 = test system: RPMI-8226

Row | SMILES | GI50 (MOLT-4) | GI50 (HL-60) | GI50 (K562) | GI50 (OVCAR-3) | GI50 (HOP-62) | GI50 (Hs-578T) | GI50 (SNB-19) | GI50 (HCT-116) | GI50 (CAKI-1) | GI50 (EKVX) | GI50 (SK-MEL-28) | GI50 (NCI-H522) | GI50 (CCRF-CEM) | GI50 (UACC-257) | GI50 (HCC 2998) | GI50 (LOX IMVI) | GI50 (SK-MEL-2) | GI50 (SF-295) | GI50 (A498) | GI50 (RPMI-8226)
1 | CCN(CC)Cc1ccc(C(=S)Nc2ccc(Cl)cc2)s1 | 4.54 µM (inactive) | 2.75 µM (inactive) | 1.87 µM (inactive) | 15.3 µM (inactive) | 16.3 µM (inactive) | 10.4 µM (inactive) | 16.5 µM (inactive) | 10.5 µM (inactive) | 12.7 µM (inactive) | 4.06 µM (inactive) | 6.92 µM (inactive) | 11.4 µM (inactive) | 11.9 µM (inactive) | 4.81 µM (inactive) | 12.6 µM (inactive) | 4.82 µM (inactive) | 15.1 µM (inactive) | 9.91 µM (inactive) | 12 µM (inactive) | 6.31 µM (inactive)
2 | CC[C@@]1(O)C(=O)OCc2c1cc1n(c2=O)Cc2c-1nc1ccccc1c2/C=N\NC(=O)C(N)Cc1c[nH]c2ccccc12 (stereo not given in full) | < 0.01 µM (active) | 0.0638 µM (active) | 0.239 µM (active) | 5.14 µM (inactive) | 0.0556 µM (active) | 27.9 µM (inactive) | < 0.0198 µM (active) | 0.392 µM (active) | 0.0578 µM (active) | 5.78 µM (inactive) | 1.26 µM (inactive) | 0.643 µM (active) | < 0.01 µM (active) | 1.96 µM (inactive) | 2.3 µM (inactive) | 0.0675 µM (active) | 5.93 µM (inactive) | 0.0887 µM (active) | 0.499 µM (active) | 0.78 µM (active)
3 | CCOP(=O)(O)C(Nc1ccc(/N=N/c2ccccc2)cc1)c1ccc(C(Nc2ccc(/N=N/c3ccccc3)cc2)P(=O)(O)OCC)cc1 (stereo not given) | 20.3 µM (inactive) | 17.1 µM (inactive) | 19.6 µM (inactive) | 75.7 µM (inactive) | 18.5 µM (inactive) | 18.6 µM (inactive) | 21.5 µM (inactive) | 18.3 µM (inactive) | 44.6 µM (inactive) | 18.7 µM (inactive) | 19.2 µM (inactive) | 18.6 µM (inactive) | 22.1 µM (inactive) | 26.4 µM (inactive) | 17.9 µM (inactive) | 15.6 µM (inactive) | 18.2 µM (inactive) | 18.9 µM (inactive) | 32 µM (inactive) | 23.7 µM (inactive)
4 | CC(=O)Oc1cccc2c1C(=O)c1c(OC(C)=O)cc(C)cc1C2=O | 26.6 µM (inactive) | 23.6 µM (inactive) | 29 µM (inactive) | 16.4 µM (inactive) | 32.4 µM (inactive) | 46.6 µM (inactive) | 30.3 µM (inactive) | 33.6 µM (inactive) | > 100 µM (inactive) | 24.4 µM (inactive) | 27.9 µM (inactive) | 12.2 µM (inactive) | 18.8 µM (inactive) | > 100 µM (inactive) | 61.7 µM (inactive) | 69 µM (inactive) | 29 µM (inactive) | 29.1 µM (inactive) | 37.8 µM (inactive) | 12.6 µM (inactive)
5 | O=C(c1c(F)c(F)c(F)c(F)c1F)n1c(O)nc2ccccc21 | 4.47 µM (inactive) | 2.42 µM (inactive) | 3.51 µM (inactive) | 9.77 µM (inactive) | 17.2 µM (inactive) | 17.2 µM (inactive) | 14.9 µM (inactive) | 3.49 µM (inactive) | 5.82 µM (inactive) | 13.9 µM (inactive) | 15 µM (inactive) | 5.9 µM (inactive) | 4.53 µM (inactive) | 5.69 µM (inactive) | 3.56 µM (inactive) | 3.83 µM (inactive) | 4.2 µM (inactive) | 16.4 µM (inactive) | 19.1 µM (inactive) | 3.03 µM (inactive)
6 | O=C(/C=C/c1ccccc1O)CC(=O)/C=C/c1ccccc1O | 3.78 µM (inactive) | 3.24 µM (inactive) | 3.82 µM (inactive) | 3.82 µM (inactive) | 11.8 µM (inactive) | 8.17 µM (inactive) | 9.84 µM (inactive) | 2.38 µM (inactive) | 17.9 µM (inactive) | 13.3 µM (inactive) | 12.8 µM (inactive) | 3.72 µM (inactive) | 3.1 µM (inactive) | 10.3 µM (inactive) | 10.5 µM (inactive) | 1.32 µM (inactive) | 8.79 µM (inactive) | 6.53 µM (inactive) | 23.3 µM (inactive) | 2.93 µM (inactive)
7 | Clc1ccc2oc(CCC3CCCCC3)nc2c1 | 16.4 µM (inactive) | 16.3 µM (inactive) | 38.2 µM (inactive) | 15.6 µM (inactive) | 22.3 µM (inactive) | 91.2 µM (inactive) | 42.3 µM (inactive) | 31.4 µM (inactive) | 24.7 µM (inactive) | 26.7 µM (inactive) | 33.3 µM (inactive) | 21.9 µM (inactive) | 18.5 µM (inactive) | 30.6 µM (inactive) | 22.9 µM (inactive) | 4.7 µM (inactive) | 19.1 µM (inactive) | 22 µM (inactive) | 37.8 µM (inactive) | 37.3 µM (inactive)
8 | CCCCn1cnnc1NS(=O)(=O)c1cc(C)c(Cl)cc1SCC(=O)O | > 10 µM (inactive) | > 10 µM (inactive) | > 10 µM (inactive) | > 10 µM (inactive) | > 10 µM (inactive) | > 10 µM (inactive) | > 10 µM (inactive) | > 10 µM (inactive) | > 10 µM (inactive) | > 10 µM (inactive) | > 10 µM (inactive) | > 10 µM (inactive) | > 10 µM (inactive) | > 10 µM (inactive) | > 10 µM (inactive) | > 10 µM (inactive) | > 10 µM (inactive) | > 10 µM (inactive) | > 10 µM (inactive) | > 10 µM (inactive)
9 | C[C@@H]1C[C@H]2CC[C@H](O2)[C@H](C)C(=O)O[C@@H](C)C[C@@H]2CC[C@@H](O2)[C@@H](C)C(=O)O[C@H](C)C[C@H]2CC[C@H](O2)[C@H](C)C(=O)O[C@@H](C)C[C@@H]2CC[C@@H](O2)[C@@H](C)C(=O)O1 | 0.36 µM (active) | 0.157 µM (active) | 0.228 µM (active) | 0.073 µM (active) | 0.319 µM (active) | 0.489 µM (active) | 0.366 µM (active) | 0.315 µM (active) | 0.826 µM (active) | 0.283 µM (active) | 1.96 µM (inactive) | 0.211 µM (active) | 0.292 µM (active) | 0.242 µM (active) | 1.1 µM (active) | 0.305 µM (active) | 0.245 µM (active) | 0.242 µM (active) | 0.859 µM (active) | 0.0769 µM (active)
10 | C[C@@H]1Nc2cc(NC(=O)OCCF)nc(N)c2N=C1c1ccccc1 | < 0.0001 µM (active) | < 0.0001 µM (active) | < 0.0001 µM (active) | < 0.0001 µM (active) | < 0.0001 µM (active) | < 0.0001 µM (active) | 0.0409 µM (active) | < 0.0001 µM (active) | > 100 µM (inactive) | < 0.0001 µM (active) | 88.7 µM (inactive) | < 0.0001 µM (active) | < 0.0001 µM (active) | < 0.01 µM (active) | < 0.01 µM (active) | < 0.0001 µM (active) | < 0.01 µM (active) | < 0.0001 µM (active) | 19.8 µM (inactive) | < 0.0001 µM (active)
11 | CC(C)(C)c1cc(C(=O)/C=C/c2c(Cl)cccc2Cl)cc(C(C)(C)C)c1O | 6.85 µM (inactive) | 3.7 µM (inactive) | 18.9 µM (inactive) | 3.79 µM (inactive) | 20 µM (inactive) | 25.2 µM (inactive) | 11.9 µM (inactive) | 8.83 µM (inactive) | 22.2 µM (inactive) | 21.9 µM (inactive) | 19.4 µM (inactive) | 5.57 µM (inactive) | 4.04 µM (inactive) | 5.6 µM (inactive) | 14.1 µM (inactive) | 13.6 µM (inactive) | 11.9 µM (inactive) | 11.5 µM (inactive) | 27.2 µM (inactive) | 3.8 µM (inactive)
12 | CSC1=NN(C(C)=O)C(C(OC(C)=O)C(OC(C)=O)C(OC(C)=O)C(COC(C)=O)OC(C)=O)S1 (stereo not given) | > 100 µM (inactive) | > 100 µM (inactive) | > 100 µM (inactive) | > 100 µM (inactive) | > 100 µM (inactive) | > 100 µM (inactive) | > 100 µM (inactive) | > 100 µM (inactive) | > 100 µM (inactive) | > 100 µM (inactive) | > 100 µM (inactive) | > 100 µM (inactive) | > 100 µM (inactive) | > 100 µM (inactive) | > 100 µM (inactive) | > 100 µM (inactive) | > 100 µM (inactive) | > 100 µM (inactive) | > 100 µM (inactive) | > 100 µM (inactive)
13 | NC(=O)c1nc[nH]c1/N=N/SCC(N)C(=O)O (stereo not given) | 0.962 µM (active) | 1.26 µM (inactive) | 2.01 µM (inactive) | 19.1 µM (inactive) | 28.7 µM (inactive) | > 56.9 µM (inactive) | > 100 µM (inactive) | 6.9 µM (inactive) | 4.21 µM (inactive) | > 75.7 µM (inactive) | > 100 µM (inactive) | > 68.7 µM (inactive) | 2 µM (inactive) | 54.8 µM (inactive) | 4.06 µM (inactive) | 2.61 µM (inactive) | 3.33 µM (inactive) | 6.32 µM (inactive) | > 100 µM (inactive) | 6.24 µM (inactive)
14 | Cn1c2ccccc2n2c3ccccc3c(=O)c(C#N)c12 | 2.96 µM (inactive) | 3.41 µM (inactive) | 9.79 µM (inactive) | > 100 µM (inactive) | 19.2 µM (inactive) | 13.2 µM (inactive) | 16.5 µM (inactive) | 4.19 µM (inactive) | 3.85 µM (inactive) | 18.7 µM (inactive) | > 83.4 µM (inactive) | 4.29 µM (inactive) | 8.38 µM (inactive) | 55.6 µM (inactive) | 6.56 µM (inactive) | 4.38 µM (inactive) | 48.8 µM (inactive) | 12.6 µM (inactive) | 18.3 µM (inactive) | 3.44 µM (inactive)
